How the values were obtained:
[1] = Thermal stability: FTIR spectra after heating for 30 minutes; type: physicochemical
Description: Infrared (IR) spectroscopy was used to quantify samples. Nicolet 6700 FT-IR spectrophotometer was used to measure absorbance or transmittance value of samples. All samples were finely ground and mixed with fused KBr to form pellets in the measurements. Typical parameters included: scan range of 400-4000 cm^−1; resolution 4.00 cm^−1; and the number of scans were 32.
The FTIR spectra of the 0.5000 g calcium montmorillonite chelated with 0.2500 g of LAA heated at 100° C., 120° C., 140° C., 160° C., 180° C. and 200° C. for 30 minutes are shown in FIG. 10. As reference, the FTIR spectra of LAA at room temperature and after heating to 90, 120, 140, 160, 180 and 200° C. for 30 minutes are also shown in FIG. 10.
Further at 140° C., the structure of LAA is altered as the carbonyl stretch at 1750 cm^−1 was broader and the fingerprint region was changed.
First, 0.1000 g samples of the chelated clays were prepared as described in previous examples. Then to determine the thermal stability, 0.1000 g samples of 0.5000 g calcium montmorillonite chelated with 0.0500 g, 0.1000 g, 0.2500 g and 0.5000 g of LAA, were heated in an oven at 90° C. for 30 minutes. Pellets of the cooled samples were prepared with fused KBr and FTIR spectra of these samples were obtained. Reference spectra of the calcium montmorillonite chelated clays before heating were also obtained for comparison. […]

[2] = in blood plasma; cited from earlier work

O=C1O[C@H]([C@@H](O)CO)C(O)=C1O [LAA, L-ascorbic acid]
structure (FTIR) after heating at 140° C. ([1]; 140° C., 30 minutes): altered
change of structure (FTIR) as the temperature is increased ([1]; heated 30 minutes at 90/100 to 200° C.): changes gradually as the temperature is increased until it is completely destroyed
biological half-life [2]: about 30 minutes
